Experiment [1] deals with T1, AurA (Homo sapiens, UniProt O14965).
T1 construct: purchased Caliper Life Sciences
T1 sequence (O14965 1-403): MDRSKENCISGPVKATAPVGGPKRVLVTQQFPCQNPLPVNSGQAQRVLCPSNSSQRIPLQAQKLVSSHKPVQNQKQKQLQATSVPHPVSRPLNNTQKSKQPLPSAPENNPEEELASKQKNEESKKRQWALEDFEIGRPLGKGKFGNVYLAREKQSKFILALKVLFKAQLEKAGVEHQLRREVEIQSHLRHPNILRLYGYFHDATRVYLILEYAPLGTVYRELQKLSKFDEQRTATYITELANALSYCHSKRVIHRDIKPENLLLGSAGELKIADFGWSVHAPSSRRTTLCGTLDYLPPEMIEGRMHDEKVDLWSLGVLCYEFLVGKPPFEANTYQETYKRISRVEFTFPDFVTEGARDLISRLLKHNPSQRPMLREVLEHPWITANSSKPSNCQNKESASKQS
Put plainly: Desktop Profiler kinase panel, AurA. The note with it: for inhibition at 1 µM: 1 micromolar concentration of the compound; for inhibition at 10 µM: 10 micromolar concentration of the compound, read-out: Percent Inhibition AurA. It counts as biochemical. How it is done: The Aurora assays described here are performed on two Caliper Life Sciences systems: the LC3000 and the Desktop Profiler. These provide data on enzyme activity via measurement of the relative amounts of phosphorylated or unphosphorylated fluorescently labelled substrate peptide at the end of an enzymatic reaction. These different states of peptide are resolved by applying a potential difference across the sample. The presence of the charged phosphate group on the product (as opposed to the substrate) causes a different peptide mobility between the two peptides. This is visualized by excitation of the fluorescent label on the substrate and product peptides and represented as peaks within the analysis software.
The Desktop Profiler utilizes the same principle as the LC3000 for calculating percentage conversion of a substrate to product. Caliper Life Sciences provides proprietary flash frozen pre-made 384 well plates containing selected kinases. Each column in the 384 well plate contains a particular selected kinase. A second plate, the ‘substrate plate’ contains a mix of fluorescently labeled peptide substrate and ATP. These are arranged in columns so that transfer for substrate plate to enzyme plate provides the correct enzyme with the correct substrate/ATP concentration. Compounds are added to a thawed enzyme plate in the desired format, in single concentrations. Reactions are initiated by transfer of the substrate/ATP mix from the substrate plate. The enzyme plate is incubated for 90 mins at 25 C. The reaction is stopped by addition of 70 ul of Stop Buffer (100 mM HEPES pH 7.5, 0.015% Brij-35, 10 mM EDTA (Sigma, E7889)).
Reading of the plate in the Profiler is identical to the LC3000, and the ratio between substrate and product peaks provides the activity of the enzyme in that well. This is best represented by a plate heat map which colors each well by percent inhibition as compared to positive and negative controls (no inhibitors and no ATP respectively).
In the following Tables 3a-4-b, which show the results of the desktop profiler measurements, “+” means 50-70% inhibition, “++” means 70-90% inhibition, and “+++” means >90% inhibition. The enzymes tested for profiling were ABL, AKT1, AKT2, AurA, CHK1, CHK2, CK1d, Erk1, Erk2, FYN, GSK3b, INSR, LCK, LYN, MAPKAPK2, MET, MSK1, p38a, PKA, PKCz, PKD2, PRAK, RSK1 and SRC.

The target in experiment [2] is T2, GST-Aurora A (Homo sapiens, UniProt O14965).
T2 construct: N-terminal GST fusion with full length Aurora A (1-403 amino acids); purchased Carna Biosciences 05-101
T2 sequence (O14965 1-403): T1 sequence (O14965 1-403)
Put plainly: Aurora A IC50, Caliper LC3000 mobility shift assay. The note with it: LC3000 method; 15 uM ATP (the KM value); read-out: Aurora Kinase A Activity (IC50). Type of experiment: biochemical. The essentials:
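Readout: percent conversion of FITC-LRRASLG (1 uM) to phosphopeptide, resolved electrophoretically on a Caliper LC3000, fitted against inhibitor concentration for IC50. Reaction: N-terminal GST full-length Aurora A, ATP at its KM (15 uM), pH 7.5 HEPES with MgCl2/DTT, 25 C for 90 min.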

This note sets out measurements from patent publication US8735584B2 (Merck Patent GmbH, priority 2008, dated 2014).

Take `COc1ccccc1CNc1ccc2c(=O)[nH]c3ncccc3c2c1` [Example 34, 9-(2-Methoxy-benzylamino)-5H-benzo[c][1,8]naphthyridin-6-one]: the inhibition (usually the share of the control response that was lost under treatment) at 1 µM in experiment [1] is > 90%. For the same molecule, the IC50 (usually the concentration that gives 50% inhibition) in experiment [2] was > 100 nM.

In the case of `COc1cccc(CNc2cnc3[nH]c(=O)c4ccccc4c3c2)c1` [Example 38, 2-(3-Methoxy-benzylamino)-5H-benzo[c][1,8]naphthyridin-6-one], the inhibition at 10 µM in experiment [1] was in the range of 50 to 70%.

In turn, `O=c1[nH]c2ncccc2c2cc(NCc3ccccc3)ccc12` [Example 25, 9-Benzylamino-5H-benzo[c][1,8]naphthyridin-6-one] yielded an inhibition at 1 µM in experiment [1] of 70 to 90%. The IC50 in experiment [2] was > 100 nM.

`Nc1ccnc2[nH]c(=O)c3ccccc3c12` [Example 141, 1-Amino-5H-benzo[c][1,8]naphthyridin-6-one]: in experiment [1], the inhibition at 10 µM lay within 50 to 70%.

Regarding `O=c1[nH]c2ncccc2c2cc(NCc3cccc(F)c3)ccc12` [Example 35, 9-(3-Fluoro-benzylamino)-5H-benzo[c][1,8]naphthyridin-6-one], the inhibition at 1 µM in experiment [1] was > 90%. In addition, the IC50 in experiment [2] was > 100 nM.

In the case of `COc1ccc(CNc2cnc3[nH]c(=O)c4ccccc4c3c2)cc1` [Example 37, 2-(4-Methoxy-benzylamino)-5H-benzo[c][1,8]naphthyridin-6-one], in experiment [1], the inhibition at 10 µM lay within 50 to 70%.

For the molecule `COc1ccccc1CNc1cnc2[nH]c(=O)c3ccccc3c2c1` [Example 39, 2-(2-Methoxy-benzylamino)-5H-benzo[c][1,8]naphthyridin-6-one], the inhibition at 10 µM in experiment [1] is 50 to 70%.

In the case of `O=c1[nH]c2ncc(Cl)cc2c2ccccc12` [Example 9, 2-Chloro-5H-benzo[c][1,8]naphthyridin-6-one], in experiment [1], the inhibition at 10 µM was in the range of 50 to 70%.

Turning to `O=C(Nc1ccc(Nc2ccnc3[nH]c(=O)c4ccccc4c23)c(F)c1)c1ccccc1` [Compound 321, N-(3-Fluoro-4-(6-oxo-5,6-dihydrobenzo[c][1,8]naphthyridin-1-ylamino)phenyl)benzamide], the IC50 in experiment [2] is < 11 nM.

Turning to `O=c1[nH]c2ncccc2c2cc(Cl)ccc12` [Example 6, 9-Chloro-5H-benzo[c][1,8]naphthyridin-6-one], in experiment [1], the inhibition at 10 µM was 50 to 70%.

As to `O=C(Nc1ccc(Oc2ccnc3[nH]c(=O)c4ccccc4c23)cc1)c1ccccc1` [Compound 405, N-[4-(6-Oxo-5,6-dihydro-benzo[c][1,8]naphthyridin-1-yloxy)-phenyl]-benzamide], in experiment [2], the IC50 was in the range of 11 to 100 nM.

For `COc1cc2c(=O)[nH]c3nccc(Nc4ccc(NC(=O)c5ccc(F)cc5C(F)(F)F)cc4)c3c2cc1OC` [Compound 416, 4-Fluoro-N-[4-(8,9-dimethoxy-6-oxo-5,6-dihydro-benzo[c][1,8]naphthyridin-1-ylamino)-phenyl]-2-trifluoromethyl-benzamide], in experiment [2], the IC50 is < 11 nM.

For the molecule `O=C(Nc1ccc(Nc2ccnc3[nH]c(=O)c4c(C(=O)NCCO)cccc4c23)cc1)c1ccccc1` [Compound 438, 1-[4-Benzoylamino-phenylamino)-6-oxo-5,6-dihydro-benzo[c][1,8]naphthyridin-7-carboxylic acid 2-hydroxy ethyl amide], the IC50 in experiment [2] is < 11 nM.

For `O=c1[nH]c2ncccc2c2cc(NS(=O)(=O)c3ccc(Br)cc3)ccc12` [Example 72, 4-Bromo-N-(6-oxo-5,6-dihydro-benzo[c][1,8]naphthyridin-9-yl)-benzenesulfonamide], the IC50 in experiment [2] is > 100 nM.

For the molecule `O=C(Nc1ccc(Nc2ccnc3[nH]c(=O)c4cc(Cl)ccc4c23)cc1)c1ccccc1` [Compound 275, N-(4-(8-Chloro-6-oxo-5,6-dihydrobenzo[c][1,8]naphthyridin-1-ylamino)phenyl)benzamide], the IC50 in experiment [2] is 11 to 100 nM.

`O=c1[nH]c2ncccc2c2cc(NCc3cccc(C(F)(F)F)c3)ccc12` [Example 69, 9-(3-Trifluoromethyl-benzylamino)-5H-benzo[c][1,8]naphthyridin-6-one]: the IC50 in experiment [2] lay within 11 to 100 nM.

On to `CN(C)CCCNC(=O)c1cccc2c1c(=O)[nH]c1nccc(Nc3ccc(NC(=O)c4ccccc4)cc3)c12` [Compound 436, 1-(4-Benzoylamino-phenylamino)-6-oxo-5,6-dihydro-benzo[c][1,8]naphthyridine-7-carboxylic acid (3-dimethylamino-propyl)-amide], for which the IC50 in experiment [2] was in the range of 11 to 100 nM.

For `COc1ccc(Nc2ccc3c(=O)[nH]c4ncccc4c3c2)cc1` [Example 29, 9-(4-Methoxy-phenylamino)-5H-benzo[c][1,8]naphthyridin-6-one], in experiment [1], the inhibition at 1 µM lay in the range of 50 to 70% and the inhibition at 10 µM is 70 to 90%. The IC50 in experiment [2] is > 100 nM.

In the case of `O=C(Nc1ccc(Nc2ccnc3[nH]c(=O)c4c(C(=O)O)cccc4c23)cc1)c1ccc(F)cc1C(F)(F)F` [Compound 439, 1-[4-(4-Fluoro-2-trifluoromethyl-benzoylamino)-phenylamino)-6-oxo-5,6-dihydro-benzo[c][1,8]naphthyridin-7-carboxylic acid], in experiment [2], the 50% inhibitory concentration (IC50) is < 11 nM.

`N#Cc1ccccc1CNc1ccc2c(=O)[nH]c3ncccc3c2c1` [Compound 462, 2-((6-oxo-5,6-dihydrobenzo[c][1,8]naphthyridin-9-ylamino)methyl)benzonitrile]: the IC50 in experiment [2] was > 100 nM.

Consider `O=C(CC1CC1)Nc1ccc(Nc2ccnc3[nH]c(=O)c4ccccc4c23)cc1` [Compound 352, 2-Cyclopropyl-N-(4-(6-oxo-5,6-dihydrobenzo[c][1,8]naphthyridin-1-ylamino)phenyl)acetamide], for which the IC50 in experiment [2] is 11 to 100 nM.

As for `O=c1[nH]c2ncccc2c2cc(NCc3c(F)cccc3Cl)ccc12` [Compound 471, 9-(2-Chloro-6-fluorobenzylamino)benzo[c][1,8]naphthyridin-6(5H)-one], the IC50 in experiment [2] is > 100 nM.

Take `O=C(CN1CCC(Nc2ccnc3[nH]c(=O)c4ccccc4c23)CC1)Nc1cccc(F)c1` [Compound 373, N-(3-Fluorophenyl)-2-(4-(6-oxo-5,6-dihydrobenzo[c][1,8]naphthyridin-1-ylamino)piperidin-1-yl)acetamide]: in experiment [2], the concentration for half-maximal inhibition (IC50) is 11 to 100 nM.

As to `O=C(Nc1ccc(Nc2ccnc3[nH]c(=O)c4ccccc4c23)cc1)c1cccc(C(F)(F)F)c1F` [Compound 387, 2-Fluoro-N-[4-(6-oxo-5,6-dihydro-benzo[c][1,8]naphthyridin-1-ylamino)-phenyl]-3-trifluoromethyl-benzamide], the IC50 in experiment [2] is < 11 nM.

Turning to `O=c1[nH]c2nccc(Nc3ccc(OCc4cccc(F)c4)cc3)c2c2ccccc12` [Compound 330, 1-(4-(3-Fluorobenzyloxy)phenylamino)benzo[c][1,8]naphthyridin-6(5H)-one], in experiment [2], the IC50 was in the range of 11 to 100 nM.

As for `O=c1[nH]c2ncccc2c2cc(NCc3ccc(Cl)cc3)ccc12` [Compound 452, 9-(4-Chlorobenzylamino)benzo[c][1,8]naphthyridin-6(5H)-one], in experiment [2], the IC50 is > 100 nM.

Take `COc1ccc(CNc2ccc3c(=O)[nH]c4ncccc4c3c2)cc1` [Example 33, 9-(4-Methoxy-benzylamino)-5H-benzo[c][1,8]naphthyridin-6-one]: in experiment [1], the inhibition at 1 µM lay within 50 to 70% and the inhibition at 10 µM lay within 70 to 90%.

Take `O=C(Nc1ccc(Nc2ccnc3[nH]c(=O)c4ccccc4c23)cc1)c1ncccc1F` [Compound 506, 3-Fluoro-N-(4-(6-oxo-5,6-dihydrobenzo[c][1,8]naphthyridin-1-ylamino)phenyl)picolinamide]: the IC50 in experiment [2] is 11 to 100 nM.
